The source of these data is patent US20180228787A1, “AMELIORATION OF CERTAIN DEFICIENCIES DUE TO STROKE” (NEURALSTEM, INC., priority 2017, published 2018).

Format in all cases: in vivo, Sprague-Dawley rats
The test system of assay [1] is middle cerebral artery occlusion (MCAo) stroke rats. Briefly: Bederson neurological exam after MCAo stroke. The source says: (§1) A. Stroke surgery. Sixty (60) adult Sprague-Dawley, male rats (weighing around 250 g at beginning of the study) received experimental stroke surgery using the middle cerebral artery occlusion (MCAo) model, under aseptic conditions. […] were anesthetized with 1-2% isoflurane in nitrous oxide/oxygen (69%/30%) using a face mask and checked for pain reflexes. Under deep anesthesia, animals underwent the MCAo surgery which entails insertion of a filament through the carotid artery to reach the junction of the MCA, thus blocking the blood flow from the common carotid artery, as well as from the circle of Willis.
The right common carotid artery was identified and isolated through a ventral midline cervical incision and suture size 4-0, made of sterile, non-absorbable suture (Ethicon, Inc.), with the diameter of the suture tip tapered to 24 to 26-gauge size using a rubber cement. About 15 to 17 mm of the filament was inserted from the junction of the external and internal carotid arteries to block the MCA. The right MCA was occluded for one hour. A heating pad and a rectal thermometer allowed maintenance of body temperature within normal limits (37±0.3° C.).
To further ensure similar degree of stroke insults, physiological parameters including PaO2, PaCO2, and plasma pH measurements were monitored. Based on laser Doppler readouts and behavioral tests after MCAs, a total of 48 animals were enrolled in this study.
B. Drug Treatment. In the treated subjects, 30 mg/kg of the phosphate of formula (2) wherein R^1 is isoamyl (NSI-189 H3PO4 (mol. wt. 464.50)), 99.8% pure based on the weight of the API (active pharmaceutical ingredient) base without the weight of phosphate salt was administered orally in 0.03N HCl in deionized water (n=24) or vehicle (n=24) was administered following MCAo 6 hours after stroke, and daily for the next 12 weeks.
About one hour after the EBST, the Bederson neurological exam was conducted using 3 tests: (1) forelimb retraction—measuring the ability of the rat to replace the forelimb after it was displaced laterally by 2 to 3 cm, graded from 0 (immediate replacement) to 3 (replacement after several seconds or no replacement); (2) beam walking ability, graded 0 for a rat that readily traversed a 2.4-cm-wide, 80-cm-long beam to 3 for a rat unable to stay on the beam for 10 seconds; and (3) bilateral forepaw grasp—the ability to hold onto a 2-mm-diameter steel rod, graded 0 for a rat with normal forepaw grasping behavior to 3 for a rat unable to grasp with the forepaws. The scores from all 3 tests, which were done over a period of about 15 minutes on each assessment day, were added to give a mean neurologic deficit score (maximum possible score, 9 points divided by 3 tests=3). […]

In a further assay the test system is MAP2. As to the kind of experiment: MAP2 immunohistochemistry of stroke brains. The source says: (§2) At scheduled intervals post-stroke (either 12 weeks or 24 weeks), rats of Example 1 were randomly euthanized (n=12 per treatment), perfused by transcardial perfusion with 4% paraformaldehyde. The brains were dissected, post-fixed for overnight in 4% paraformaldehyde, then subsequently immersed in 30% sucrose until immunohistochemical processing. Brain section preparations were designed to identify stroke-induced cerebral infarction and NSI-189-induced neurogenic effects.
(§3) Brains were embedded in gelatin blocks and sectioned on a freezing sliding microtome at 40-μm. The sections were washed in PBS 5×10 min to remove the antigen preservative solution. Endogenous peroxidase was blocked using 3% H2O2 for 15 minutes. The sections were then incubated in 1% Triton-X100 for 30 minutes, and then blocked with 5% Normal Horse Serum (NETS) for 1 hour. The sections were incubated with the primary antibody that binds Ki67 (1:2000, Cat. #: ab16667, Abcam, CA) or that binds MAP2 (1:2000, Cat. #: AB5622, Millipore, MA) overnight, rinsed 5×5 min in PBS prior to pre-incubation in 5% NHS for 1 hour, then incubated with the secondary antibody which corresponded to the respective host of the primary antibody (Donkey or Rabbit, 1:2000, Cat. #: 711-066-152, Jackson ImmunoResearch Laboratories, Inc, PA) for 90 minutes. After rinsing in PBS (5×5 min), the sections were incubated with peroxidase-conjugated streptavidin (1:5000, Cat. #: 016-030-084, Jackson ImmunoResearch Laboratories, Inc, PA) with 1% NHS. The sections were washed 5×5 min in PBS after the streptavidin, prior to developing with DAB (3,3′-Diaminobenzidine Tetrahydrochloride Hydrate, Cat #: 1001306853, Sigma-Aldrich, St. Louis, Mo.) and Nickel chloride. After DAB processing, the sections were rinsed, mounted, and air-dried overnight. The slides were dehydrated, and coverslipped with DPX Mounting Medium (Cat #: 13512, Electron Microscopy Sciences, Hatfield, Pa.).
The slides were imaged and reviewed under Nikon bright-field microscope (Nikon, Tokyo, Japan). The regions of interest (ROIs), including the cerebral cortex, the hippocampal subfields (CA1+CA2, CA3 and DG) were contoured rostro-caudally and the immunoreactivity of the MAP2 density was measured by Nikon NIS-Element software and Ki67+ cells counted rostro-caudally along the subgranular zone (SGZ) by Image-Pro Premier (v10.10), respectively. The slides were coded and blinded to the analysts during the course of the study. After completion, quantitative data were extracted and transferred for the statistical analysis (Prism, GraphPad®, La Jolla, Calif.). The data values between groups were compared using ANOVA with Tukey's post-hoc tests (p<0.05).

Assay [2] concerns middle cerebral artery occlusion (MCAo) stroke rats. As to the kind of experiment: Elevated body swing test (EBST) after MCAo stroke.
Source text: as §1
The right common carotid artery was identified and isolated through a ventral midline cervical incision and suture size 4-0, made of sterile, non-absorbable suture (Ethicon, Inc.), with the diameter of the suture tip tapered to 24 to 26-gauge size using a rubber cement. […]
To further ensure similar degree of stroke insults, physiological parameters including PaO2, PaCO2, and plasma pH measurements were monitored. Based on laser Doppler readouts and behavioral tests after MCAs, a total of 48 animals were enrolled in this study. […]
C. […] The direction of the swing, either left or right, was counted once the animals head moves sideways approximately 10 degrees from the midline position of the body. […]

In a further assay the test system is Ki67. Briefly: Ki67 immunohistochemistry of stroke brains.
Source text: as §2
as §3, with “The sections were washed 5×5 min in PBS after the streptavidin, prior to developing with DAB (3,3′-Diaminobenzidine Tetrahydrochloride Hydrate, Cat #: 1001306853, Sigma-Aldrich, St. Louis, Mo.) and Nickel chloride. After DAB processing, the sections were rinsed, mounted, and air-dried overnight. The slides were dehydrated, and coverslipped with DPX Mounting Medium (Cat #: 13512, Electron Microscopy Sciences, Hatfield, Pa.).” left out
The slides were imaged and reviewed under Nikon bright-field microscope (Nikon, Tokyo, Japan). The regions of interest (ROIs), including the cerebral cortex, the hippocampal subfields (CA1+CA2, CA3 and DG) were contoured rostro-caudally and the immunoreactivity of the MAP2 density was measured by Nikon NIS-Element software and Ki67+ cells counted rostro-caudally along the subgranular zone (SGZ) by Image-Pro Premier (v10.10), respectively. […] After completion, quantitative data were extracted and transferred for the statistical analysis (Prism, GraphPad®, La Jolla, Calif.). […]

Setting [3] is: 12 weeks and 24 weeks post-stroke, vs vehicle, p's>0.05.
The mark [4] stands for this setting: vs vehicle-treated stroke animals.

SMILES strings stand for the structures.

For `CC(C)CCNc1ncccc1C(=O)N1CCN(Cc2ccccc2)CC1.O=P(O)(O)O` [NSI-189 phosphate], the “restoring motor skills in the Bederson neurological exam” value in assay [1] (MCAo rats, 30 mg/kg orally 6 hours after stroke and daily for 12 weeks, vs vehicle) was “successful in restoring motor skills”. In addition, the “performance in the Bederson neurological exam (FIG. 2)” value in assay [1] (MCAo rats, 30 mg/kg orally daily for 12 weeks, after 6 months) is given as “performance approaching that of control even after 6 months”. For the same compound, the “control of motor skills compared to vehicle animals” value in assay [1] (day 3 post stroke, p<0.05) is on record as “showed control of motor skills as early as day 3 post stroke”. In addition, in assay [1] (during 12 weeks of drug treatment and the next 12 weeks after withdrawal, p<0.05), the “improvement of motor skills over time compared to untreated animals” value is listed as “continued to improve over time compared to untreated animals”. In addition, the “MAP2 density in the cerebral cortex” value in the assay with MAP2 (12-week period, vs vehicle, p's<0.05) is “amplified MAP2 density”; in the assay with MAP2 (24-week time point, vs vehicle), “only detected at the 12-week period”. Further, the “MAP2 density in the hippocampus” value was “increased MAP2 density” in the assay with MAP2 (12-week time point, vs vehicle, p's<0.05) and “increased MAP2 density” in the assay with MAP2 (24-week time point, vs vehicle, p's<0.05). In addition, the “cerebral infarction by MAP2 expression in the cortex and striatum” value in the assay on MAP2 (setting [3]) is recorded as “did not significantly differ between groups”. In addition, in the assay on MAP2 (setting [4]), the “MAP2 staining (neurogenesis) in the peri-infarct cortex” value was “increased Ki67 and MAP2 staining”. For the same compound, the “restoring motor skills in the EBST” value in assay [2] (30 mg/kg orally 6 hours after stroke and daily for 12 weeks, vs vehicle) was “successful in restoring motor skills”. In assay [2] (30 mg/kg orally daily for 12 weeks, controls showed no such recovery), the “performance in the EBST (FIG. 1)” value is on record as “recovered performance in the EBST almost to baseline levels”. In addition, the “Ki67 level in hippocampal subgranular zone (SGZ)” value with Ki67 (setting [3]) was “comparable levels of Ki67”. The “Ki67 level in subventricular zone (SVZ)” value with Ki67 (setting [3]) is given as “comparable levels of Ki67”. Further, the “Ki67 staining (cell proliferation) in the peri-infarct cortex” value in the assay on Ki67 (setting [4]) was “increased Ki67”.
